Results: patent US8530475B2, “Bridged aryl piperazines derivatives useful for the treatment of CNS, GI-urinary and reproductive disorders” (Janssen Pharmaceutica NV, priority 2006, dated 2013)
“And” between values parts separate entries of the source, which are not always exact repeats. Identical values can stand only once. Like-named read-outs stand apart in the source and are kept apart here.

Key:
[1] = molecular target: T1, human 5HT1A receptor (Homo sapiens, UniProt P08908); experiment: [35S]GTPγS binding for 5-HT1A receptor inhibition (antagonist mode); type: biochemical; settings: Example 78, HEK293 membranes, antagonist mode with serotonin 100 nM, <5 = not active at up to 10 μM; for IC50: read-out: h5HT1A Antagonist pIC50 (converted)
T1 construct: purchased Perkin Elmer; host or cells: HEK293 cells, stably transfected (membranes)
T1 sequence (P08908 1-422): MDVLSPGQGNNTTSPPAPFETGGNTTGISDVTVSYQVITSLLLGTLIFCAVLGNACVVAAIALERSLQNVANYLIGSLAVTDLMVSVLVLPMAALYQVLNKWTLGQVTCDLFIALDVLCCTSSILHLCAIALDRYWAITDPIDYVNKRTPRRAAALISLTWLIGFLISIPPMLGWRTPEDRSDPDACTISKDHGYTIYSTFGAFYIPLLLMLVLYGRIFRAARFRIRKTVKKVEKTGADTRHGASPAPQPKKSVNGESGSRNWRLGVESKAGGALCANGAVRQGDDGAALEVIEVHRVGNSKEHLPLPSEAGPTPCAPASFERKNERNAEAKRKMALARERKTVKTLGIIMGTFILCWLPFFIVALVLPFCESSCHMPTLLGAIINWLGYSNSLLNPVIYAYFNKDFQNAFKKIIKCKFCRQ
Method: Compounds showing affinity at the 5-HT1A receptor were tested for functional agonism and antagonism in a [^35S]GTPγS (guanine triphosphate (non-hydrolysable, labelled with ^35S) binding assay on membranes of HEK293 cells permanently transfected with human 5HT1A receptor (Perkin Elmer, USA).
Frozen membranes were thawed, briefly homogenized and were diluted in incubation buffer, 100 mM NaCl, 0.3 mM MgCl2 and 10 μM guanine diphosphate (GDP), pH 7.4-7.5) supplemented with 10 μg/ml saponin. Assay mixtures contained 10 μg of membrane protein and test compound, buffer, or control agonist (serotonin, 10 μM). For the antagonistic assay, control agonist was present in all wells containing compound at a sub-maximal concentration (serotonin, 100 nM). After 20 minutes pre-incubation at 37° C., [^35S]GTPγS was added to a final concentration of 0.25 nM, briefly shaken and further incubated for another 20 minutes. Reactions were terminated by rapid vacuum filtration through GF/B unifilter plates using a Packard Harvester. Filters were washed three times with wash buffer (10 mM NaH2PO4, 10 mM Na2HPO4, pH 7.4), dried overnight and bound counts were measured in a Topcount Scintillation Counter in the presence of Microscint O. % Specific Binding was calculated and curves were plotted with help of in house software where pIC50 values were determined and Kb values were calculated.

[2] = molecular target: T1, human 5HT1A receptor; experiment: Radioligand binding to the 5-HT1A receptor, [3H]8-OH-DPAT; settings: Example 77, membranes of HEK293 cells, [3H]8-OH-DPAT 0.5 nM, <5 = not active at up to 10 μM; for IC50: read-out: h5HT1A pIC50 (converted)
Method: Frozen membranes of HEK293 cells, stably-transfected with human 5-HT1A receptor (Perkin Elmer) were thawed on ice, briefly homogenised with an Ultra Turrax homogeniser and then suspended in Tris-HCl buffer (50 mM pH 7.7) supplemented with CaCl2 (4 mM) at an appropriate pre-determined protein concentration (5-10 μg protein per incubation mixture). Together with [^3H]8-OH-DPAT (0.5 nM final concentration; Perkin Elmer, USA), the membrane suspension was added to the test compound and incubated (30 min at 37° C.) in a total volume of 400 μl. Non-specific binding was determined in the presence of Spiroxatrine (1 μM). Free radioligand was separated from the radioligand-receptor complex by means of rapid vacuum filtration over GF/B unifilter plates with a Packard Harvester Filtration Unit. Unifilter plates were washed with ice cold Tris-HCl buffer (50 mM, pH 8.0) and then dried overnight. Bound counts were measured in a Topcount Scintillation Counter in the presence of Microscint O.

[3] = molecular target: T2, human 5-HTT (Homo sapiens, UniProt P31645); experiment: Radioligand binding to 5-HTT (serotonin transporter, SERT), [3H]Paroxetine; settings: membranes of HEK293 cells, [3H]Paroxetine 0.5 nM, <5 = not active at up to 10 μM
T2 construct: purchased Perkin-Elmer, USA; host or cells: HEK293 cells, stably transfected (membranes)
Method: For 5-HTT binding, frozen membranes of HEK293 cells stably-transfected with human 5-HTT (Perkin-Elmer, USA) were thawed on ice, briefly homogenised and resuspended in Tris-HCl buffer (50 mM, pH 7.4) supplemented with NaCl (120 mM) and KCl (5 mM) at a concentration of 50 μg protein per incubation mixture. The membrane suspension was added to the test compound together with [^3H]Paroxetine (0.5 nM) in a total volume of 250 μl and incubated (60 min, 25° C.). Non-specific binding was determined in the presence of imipramine (1 μM). Filtration was done over pre-soaked GF/B unifilters (0.01% PEI) and washed as above with the Tris-HCl salt buffer used for the incubation. Specific binding was calculated and sigmoidal curves were plotted by an internally-developed software program based on S-plus software. Ki values were calculated using the Cheng-Prusoff equation.

[4] = Example 77, read-out: h5HTT pIC50 (converted)

T2 sequence (P31645 whole entry): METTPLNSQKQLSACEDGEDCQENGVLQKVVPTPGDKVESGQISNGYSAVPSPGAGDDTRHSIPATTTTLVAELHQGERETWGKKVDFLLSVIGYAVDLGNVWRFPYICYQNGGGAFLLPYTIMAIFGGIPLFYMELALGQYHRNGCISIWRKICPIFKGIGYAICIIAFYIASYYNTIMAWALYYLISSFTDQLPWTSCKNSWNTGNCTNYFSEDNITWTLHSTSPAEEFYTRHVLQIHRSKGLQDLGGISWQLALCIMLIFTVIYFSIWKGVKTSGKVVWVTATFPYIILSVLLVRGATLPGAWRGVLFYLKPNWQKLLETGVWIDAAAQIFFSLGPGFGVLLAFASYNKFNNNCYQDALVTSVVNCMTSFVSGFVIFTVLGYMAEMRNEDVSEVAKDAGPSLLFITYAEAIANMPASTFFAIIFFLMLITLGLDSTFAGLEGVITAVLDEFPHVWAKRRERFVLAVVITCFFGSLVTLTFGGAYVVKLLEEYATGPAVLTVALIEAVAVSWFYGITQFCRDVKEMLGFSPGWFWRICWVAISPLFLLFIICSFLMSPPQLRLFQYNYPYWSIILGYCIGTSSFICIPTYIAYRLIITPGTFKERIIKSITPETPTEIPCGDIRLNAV

Cn1ccc2c(OC[C@@H](O)CN3C[C@H]4C/C=C\C[C@@H]3CN4c3ccc4ccccc4c3)cccc21 [compound 156]
IC50 [1]: > 10 µM
IC50 [2]: > 10 µM
IC50 [3, 4]: 0.0295 µM

COc1cc2c(cc1OC)C1=NO[C@H](CN3C[C@@H]4C/C=C\C[C@H]3CN4c3ccc4ccccc4c3)C1CO2 (stereo partly drawn) [compound 141]
IC50 [2]: > 10 µM
IC50 [3, 4]: 0.724 µM

COc1cc2c(cc1OC)C1=NO[C@@H](CN3C[C@@H]4C/C=C\C[C@H]3CN4c3ccc4ccccc4c3)C1CO2 (stereo partly drawn) [compound 140]
IC50 [2]: > 10 µM
IC50 [3, 4]: 0.741 µM

Cc1cc2c(OC[C@@H](O)CN3C[C@@H]4C/C=C\C[C@H]3CN4c3cnc4ccccc4c3)cccc2[nH]1 [compound 158]
IC50 [1]: 1.15 µM
IC50 [2]: 0.126 µM
IC50 [3, 4]: 0.251 µM

Cc1cc2c(OC[C@H](O)CN3CC4CC=CCC3CN4c3ccc4ccccc4c3)cccc2[nH]1 (stereo partly drawn) [compound 153]
IC50 [1]: > 10 µM
IC50 [2]: 0.933 µM
IC50 [3, 4]: 0.0575 µM

COC(=O)c1cc2c(OC[C@@H](O)CN3C[C@@H]4C/C=C\C[C@H]3CN4c3ccc4ccccc4c3)cc(OC)cc2[nH]1 [compound 143]
IC50 [1]: > 10 µM
IC50 [2]: 0.24 µM
IC50 [3, 4]: 0.174 µM

COC(=O)c1cc2c(OC[C@@H](O)CN3C[C@@H]4C/C=C\C[C@H]3CN4c3ccc4ccccc4c3)cccc2[nH]1 [compound 126]
IC50 [1]: > 10 µM
IC50 [2]: 0.0501 µM
IC50 [3, 4]: 0.024 µM

Cc1cc2c(OCCCN3C[C@@H]4C/C=C\C[C@H]3CN4c3ccc4ccccc4c3)cccc2[nH]1 [ID No. 138, 7-[3-(2-Methyl-1H-indol-4-yloxy)-propyl]-9-naphthalen-2-yl-7,9-diaza-bicyclo[4.2.2]dec-3-ene]
IC50 [1]: 11 µM
IC50 [2]: 0.282 µM
IC50 [3, 4]: 0.0282 µM

Cc1cc2c(OC[C@@H](O)CN3C[C@@H]4C/C=C\C[C@H]3CN4c3ccc4ccccc4c3)c(F)ccc2[nH]1 [compound 148]
IC50 [1]: > 10 µM
IC50 [2]: 0.138 µM
IC50 [3, 4]: 0.0537 µM

C1=C\C[C@H]2CN(CCNc3ccccn3)[C@@H](C/1)CN2c1ccc2ccccc2c1 [compound 142]
IC50 [1]: > 10 µM
IC50 [2]: 9.77 µM
IC50 [3, 4]: 0.102 µM

Cc1cc2c(OC[C@@H](O)CN3CC4CC=CCC3CN4c3ccc4ccccc4c3)cccc2[nH]1 (stereo partly drawn) [compound 155]
IC50 [1]: > 10 µM and 6.31 µM
IC50 [2]: 0.0525 µM and 0.115 µM
IC50 [3, 4]: 0.11 µM and 0.214 µM

C1=C\C[C@H]2CN(c3ccc4ccccc4c3)[C@@H](C/1)CN2C1Cc2ccccc2C1 [compound 150]
IC50 [2]: > 10 µM
IC50 [3, 4]: 1.91 µM

Cc1cc2c(OC[C@H](O)CN3C[C@H]4C/C=C\C[C@@H]3CN4c3ccc4ccccc4c3)cccc2[nH]1 [compound 55]
h5HT1A Antagonist pIC50 [1]: <5
h5HT1A pIC50 [2]: 6.88
h5HTT pIC50 ([3]; Example 77): 6.86

Cc1cc2c(OC[C@@H](O)CN3C[C@@H]4C/C=C\C[C@H]3CN4c3ccc(Cl)c(Cl)c3)cccc2[nH]1 [compound 135]
IC50 [1]: 0.813 µM
IC50 [2]: 0.0977 µM
IC50 [3, 4]: 0.102 µM

Cc1cc2c(OC[C@@H](O)CN3C[C@@H]4C/C=C\C[C@H]3CN4c3ccc4c(c3)OCCO4)cccc2[nH]1 [compound 159]
IC50 [1]: 0.0479 µM
IC50 [2]: 0.0107 µM
IC50 [3, 4]: 0.759 µM

C1=C\C[C@H]2CN[C@@H](C/1)CN2c1cccc2ccccc12 [compound 119]
IC50 [2]: > 10 µM
IC50 ([3]; h5HTT pIC50, Example 77): 0.0708 µM

Cc1cc2c(OC[C@@H](O)CN3C[C@@H]4C/C=C\C[C@H]3CN4c3cccc4ncccc34)cccc2[nH]1 [compound 157]
IC50 [1]: 0.759 µM

O[C@H](COc1cccc2ncccc12)CN1C[C@@H]2C/C=C\C[C@H]1CN2c1ccc2ccccc2c1 [compound 160]
IC50 [1]: 0.851 µM
IC50 [2]: 0.355 µM
IC50 [3, 4]: 0.0631 µM

COC(=O)c1cc2c(OC[C@@H](O)CN3C[C@@H]4C/C=C\C[C@H]3CN4c3ccc4ccccc4c3)ccc(Cl)c2[nH]1 [compound 128]
IC50 [1]: > 10 µM
IC50 [2]: 0.562 µM
IC50 [3, 4]: 0.0302 µM

Cc1cc2c(OC[C@@H](O)CN3C[C@@H]4C/C=C\C[C@H]3CN4c3ccc4ccccc4c3)c(C)ccc2[nH]1 [compound 154]
IC50 [1]: > 10 µM
IC50 [2]: 0.724 µM
IC50 [3, 4]: 0.055 µM

C1=C\C[C@H]2CN[C@@H](C/1)CN2c1cccc2ncccc12 [compound 137]
IC50 [1]: > 10 µM
IC50 [2]: 2.34 µM
IC50 [3, 4]: 0.676 µM

COC(=O)c1cc2c(OC[C@@H](O)CN3C[C@@H]4C/C=C\C[C@H]3CN4c3ccc4ccccc4c3)ccc(C)c2[nH]1 [compound 127]
IC50 [1]: > 10 µM
IC50 [2]: 0.363 µM
IC50 [3, 4]: 0.0398 µM

Cc1cc2c(OC[C@@H](O)CN3C[C@@H]4C/C=C\C[C@H]3CN4c3cccc4ncccc34)cccc2[nH]1 [ID No. 136]
IC50 [1]: 0.309 µM

C#CCN1C[C@@H]2C/C=C\C[C@H]1CN2c1ccc2ccccc2c1 [compound 41]
IC50 [2]: > 10 µM
IC50 [3, 4]: 0.0851 µM
